The supplement of paper PMC10307832

Experiments:
Test in all cases: relative viability (nuclei count vs DMSO), 5 days (fraction); higher = more cells survive
[1] = compound: O=C(CCCCCCNC(=O)c1cnc(N(c2ccccc2)c2ccccc2)nc1)NO [Ricolinostat] + COc1cc2c(Oc3ccc(NC(=O)C4(C(=O)Nc5ccc(F)cc5)CC4)cc3F)ccnc2cc1OCCCN1CCOCC1 [Foretinib] (partner 0.25 µM)
Procedure, shortened: (§1)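 Lung cancer cell lines were seeded in 1536-well plates and dosed by pin tool the next day, with either a single drug or a fixed anchor-drug dose combined with five library-drug doses (not always all listed) spaced in √10 steps. Five days later, one step fixed the cells and stained their nuclei (final 0.05% Triton X-100, 1% formaldehyde, 1 ug/ml Hoechst), and nuclei were counted on 4× images. Relative viability is the nuclei count in treated wells divided by the count in vehicle wells, and each value is the median of duplicate plates.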

[2] = compound: O=C(CCCCCCNC(=O)c1cnc(N(c2ccccc2)c2ccccc2)nc1)NO [Ricolinostat] + COc1cccc2cc(-c3nc([C@H]4CC[C@H](C(=O)O)CC4)n4ncnc(N)c34)[nH]c12 [OSI-027] (partner 0.5 µM)
Procedure, shortened: as §1

[3] = compound: O=C(CCCCCCNC(=O)c1cnc(N(c2ccccc2)c2ccccc2)nc1)NO [Ricolinostat] + C[C@@H](Oc1cc(-c2cnn(C3CCNCC3)c2)cnc1N)c1c(Cl)ccc(F)c1Cl [Crizotinib] (partner 1 µM)
Procedure, shortened: as §1

[4] = compound: O=C(CCCCCCNC(=O)c1cnc(N(c2ccccc2)c2ccccc2)nc1)NO [Ricolinostat] + Cc1cc(Nc2cc(N3CCN(C)CC3)nc(Sc3ccc(NC(=O)C4CC4)cc3)n2)n[nH]1 [Tozasertib] (partner 0.1 µM)
Procedure, shortened: as §1

[5] = compound: O=C(CCCCCCNC(=O)c1cnc(N(c2ccccc2)c2ccccc2)nc1)NO [Ricolinostat] + Cc1nc(NC(=O)N2CCC[C@H]2C(N)=O)sc1-c1ccnc(C(C)(C)C(F)(F)F)c1 [Alpelisib] (partner 2 µM)
Procedure, shortened: as §1

Cell Line	relative viability ([1]; first compound 0.253 µM)	relative viability ([1]; first compound 0.8 µM)	relative viability ([1]; first compound 2.53 µM)	relative viability ([2]; first compound 0.253 µM)	relative viability ([2]; first compound 0.8 µM)	relative viability ([2]; first compound 2.53 µM)	relative viability ([3]; first compound 0.253 µM)	relative viability ([3]; first compound 0.8 µM)	relative viability ([3]; first compound 2.53 µM)	relative viability ([4]; first compound 0.08 µM)	relative viability ([4]; first compound 0.253 µM)	relative viability ([4]; first compound 0.8 µM)	relative viability ([4]; first compound 2.53 µM)	relative viability ([5]; first compound 0.253 µM)	relative viability ([5]; first compound 0.8 µM)	relative viability ([5]; first compound 2.53 µM)	relative viability ([1]; first compound 0.08 µM)	relative viability ([2]; first compound 0.08 µM)	relative viability ([3]; first compound 0.08 µM)	relative viability ([5]; first compound 0.08 µM)
NCI-H2085	0.867	1.02	0.783	0.72	0.627	0.414	0.81	0.819	0.848	0.688	0.731	0.613	0.523	1.04	0.861	0.915				
EPLC-272H	0.704	0.442	0.354	0.305	0.273	0.263	0.936	0.82	0.622	0.354	0.192	0.333	0.317	0.891	1.04	0.7	0.632	0.256		
A-427	1.17	0.925	1.14	0.435	0.414	0.351	0.869	0.82	0.63		0.198	0.182	0.174	1.07	1.09	0.983			0.747	0.927
NCI-H2228	1.04	0.783	0.738	0.496	0.616	0.286	0.475	0.546	0.549	0.37	0.235	0.237	0.141	0.984	0.722	0.791	0.754	0.593	0.408	0.555
ABC-1	0.901	1.11	0.912	0.518	0.482	0.292	1.16	0.836	0.705	0.215	0.203	0.229	0.18	0.933	1.11	0.648	0.88	0.425	1.01	0.955
EMC-BAC-2	1.03	0.942	0.851	0.363	0.343	0.271	0.698	0.695	0.681	0.318	0.234	0.204	0.206	0.669	0.768	0.816	0.905	0.353	0.697	0.644
NCI-H2405	1.05	1.07	1.11	0.71	0.671	0.568	0.804	0.838	0.876	0.693	0.752	0.677	0.731	0.805	0.889	1.08	0.927	0.481	0.735	0.524
NCI-H1993	0.893	0.854	0.856	0.532	0.648	0.466	0.854	0.923	0.964		0.644	0.561	0.536	0.76	0.711	0.73			0.798	0.619
LU99A	0.631	0.734	0.571	0.296	0.305	0.249	0.604	0.38	0.409	0.258	0.276	0.224	0.239	0.512	0.362	0.437	0.727	0.243	0.581	0.438
NCI-H1355	0.978	0.976	0.873	0.477	0.404	0.299	1.01	0.995	1.02	0.6	0.558	0.483	0.477	0.847	0.795	0.715	0.953	0.296		
NCI-H838	1.07	1.06	0.941	0.383	0.457	0.519	0.896	0.899	0.731	0.255	0.275	0.238	0.212	1.08	1.04	1.08	0.9	0.302	0.672	0.903
SK-MES-1	0.946	0.928	0.917	0.561	0.534	0.558	0.96	1.04	0.969	0.833	0.795	0.877	0.628	0.761	0.805	0.591	0.782	0.407	0.912	0.541
NCI-H460	0.927	1.04	1.04	0.637	0.622	0.596	0.924	0.84	0.645	0.549	0.46	0.558	0.186	0.461	0.421	0.402	0.972	0.507	1.01	0.321
HCC-78	0.526	0.553	0.427	0.372	0.341	0.395	0.288	0.279	0.25		0.33	0.347	0.27	0.32	0.291	0.192				
NCI-H358	0.636	0.631	0.503	0.802	0.734	0.954	0.453	0.421	0.31	0.0975	0.0893	0.107	0.0955	0.997	0.952	1.05	0.594	0.584	0.581	0.733
H3255	0.962	0.685	0.589	0.582	0.55	0.629	0.823	0.804	0.749	0.566	0.623	0.61	0.558	0.651	0.678	0.661	0.626	0.496	0.822	0.517
NCI-H2023	0.799	0.786	0.742	0.446	0.343	0.377	0.715	0.605	0.508		0.373	0.244	0.188	0.581	0.614	0.499			0.567	0.503

Cell Line	relative viability ([1]; first compound 0.253 µM)	relative viability ([1]; first compound 0.8 µM)	relative viability ([1]; first compound 2.53 µM)	relative viability ([2]; first compound 0.253 µM)	relative viability ([2]; first compound 0.8 µM)	relative viability ([2]; first compound 2.53 µM)	relative viability ([3]; first compound 0.253 µM)	relative viability ([3]; first compound 0.8 µM)	relative viability ([3]; first compound 2.53 µM)	relative viability ([4]; first compound 0.08 µM)	relative viability ([4]; first compound 0.253 µM)	relative viability ([4]; first compound 0.8 µM)	relative viability ([4]; first compound 2.53 µM)	relative viability ([5]; first compound 0.253 µM)	relative viability ([5]; first compound 0.8 µM)	relative viability ([5]; first compound 2.53 µM)	relative viability ([1]; first compound 0.08 µM)	relative viability ([2]; first compound 0.08 µM)	relative viability ([3]; first compound 0.08 µM)	relative viability ([5]; first compound 0.08 µM)
NCI-H1944	0.835	0.689	0.641	0.405	0.34	0.292	0.95	0.878	0.58	0.245	0.246	0.221	0.23	0.783	0.74	0.58	0.828	0.321	1.02	0.649
LOU-NH91	0.904	0.97	0.918	0.713	0.672	0.647	0.738	0.734	0.783	0.571	0.639	0.595	0.528	0.735	0.709	0.699	0.742	0.511		
NCI-H2347	1.04	0.792	0.802	0.451	0.364	0.319	0.675	0.673	0.581	0.419	0.47	0.513	0.425	1.01	0.987	0.963		0.293	0.618	0.889
CAL-12T	1.17	1.12	1.35	0.717	0.617	0.715	0.545	0.571	0.618	0.326	0.261	0.284	0.196	0.998	1.15	0.912	1.04	0.412	0.623	1.1
RERF-LC-KJ	0.795	0.88	0.802	0.569	0.47	0.438	0.754	0.819	0.65	0.531	0.406	0.324	0.265	0.972	0.754	0.766	0.842	0.578	0.784	0.668
NCI-H650	0.997	0.872	0.8	0.585	0.503	0.374	0.811	0.529	0.63	0.671	0.675	0.673	0.467	1.18	0.922	0.877	0.957	0.405		
COR-L 105	0.874	0.917	1.16	0.641	0.72	0.731	0.854	0.643	0.646		0.325	0.3	0.352	0.98	0.934	1.25			0.669	0.698
COR-L23	0.965	0.87	0.653	0.756	0.789	0.409	0.545	0.571	0.277	0.207	0.193	0.162	0.121	0.689	0.571	0.407	0.973	0.595	0.506	0.651
LXF-289	0.895	0.947	0.967	0.906	0.782	0.749	0.852	0.804	0.719	0.192	0.201	0.22	0.19	1	1.06	1.01	0.987	0.668	0.804	0.961
PC-14	0.898	0.892	0.828	0.72	0.769	0.511	0.912	0.907	0.761	0.61	0.553	0.527	0.418	0.903	0.917	0.66	0.954	0.728	0.882	0.821
EKVX	0.846		0.725	0.714		0.677	0.762	0.958	1.01	0.354	0.373		0.384	0.883	0.882	0.942	0.845	0.6		
NCI-H322M	0.964	0.893	0.928	0.598	0.532	0.51	0.913	0.818	0.751		0.504	0.517	0.497	0.829	0.795	0.715				
NCI-H520	0.889	0.89	0.688	0.259	0.231	0.228	0.667	0.707	0.782		0.374	0.345	0.345	0.765	0.954	0.852				
LC-2-ad	0.874	0.886	0.761	0.711	0.635	0.517	0.44	0.445	0.484	0.474	0.412	0.371	0.299	0.853	0.839	0.663	0.747	0.723		0.786
NCI-H596	0.825	0.857	0.924	0.82	0.845	0.5	0.963	0.977	0.959	0.977	1.08	0.983	0.859	0.492	0.446	0.463	0.922	0.801	0.967	0.429
LCLC-97TM1	0.89	1	0.933	0.524	0.541	0.27	0.435	0.277	0.286	0.171	0.2	0.149	0.153	0.288	0.188	0.306	0.953	0.271	0.363	0.177
